According to ChEMBL document CHEMBL1151123, “Isolation of a New Indole Alkaloid, Pendolmycin, from Nocardiopsis” (J Nat Prod, 1988):
Converted amounts (≈) assume the structure as drawn. The source made the active and inactive calls. The calls are words filed in the database; no cut-off is given here.

Experiments:
[1] = target: Epidermal growth factor receptor (Homo sapiens) (UniProt P00533); experiment: Inhibition of EGF binding to EGFR in human A431 cells; assay type: cell-based; conditions: A-431
Bacillus cereus = experiment: Antibacterial activity against Bacillus cereus; assay type: functional
Corynebacterium bovis = experiment: Antibacterial activity against Corynebacterium bovis; assay type: functional
[2] = system: Mycolicibacterium smegmatis; experiment: Antibacterial activity against Mycobacterium smegmatis; assay type: functional
Klebsiella pneumoniae = experiment: Antibacterial activity against Klebsiella pneumoniae; assay type: functional
A-431 = experiment: Inhibition of phosphatidylinositol turnover in EGF-stimulated human A431 cells by liquid scintillation counting; assay type: functional, cell-based
Zone of skin = experiment: Toxicity in human skin assessed as erythema; assay type: tissue-based
Staphylococcus aureus = experiment: Antibacterial activity against Staphylococcus aureus; assay type: functional
Micrococcus luteus = experiment: Antibacterial activity against Micrococcus luteus; assay type: functional
Bacillus anthracis = experiment: Antibacterial activity against Bacillus anthracis; assay type: functional
Bacillus subtilis = experiment: Antibacterial activity against Bacillus subtilis; assay type: functional

Epidermal growth factor receptor (Homo sapiens), sequence (P00533 whole entry): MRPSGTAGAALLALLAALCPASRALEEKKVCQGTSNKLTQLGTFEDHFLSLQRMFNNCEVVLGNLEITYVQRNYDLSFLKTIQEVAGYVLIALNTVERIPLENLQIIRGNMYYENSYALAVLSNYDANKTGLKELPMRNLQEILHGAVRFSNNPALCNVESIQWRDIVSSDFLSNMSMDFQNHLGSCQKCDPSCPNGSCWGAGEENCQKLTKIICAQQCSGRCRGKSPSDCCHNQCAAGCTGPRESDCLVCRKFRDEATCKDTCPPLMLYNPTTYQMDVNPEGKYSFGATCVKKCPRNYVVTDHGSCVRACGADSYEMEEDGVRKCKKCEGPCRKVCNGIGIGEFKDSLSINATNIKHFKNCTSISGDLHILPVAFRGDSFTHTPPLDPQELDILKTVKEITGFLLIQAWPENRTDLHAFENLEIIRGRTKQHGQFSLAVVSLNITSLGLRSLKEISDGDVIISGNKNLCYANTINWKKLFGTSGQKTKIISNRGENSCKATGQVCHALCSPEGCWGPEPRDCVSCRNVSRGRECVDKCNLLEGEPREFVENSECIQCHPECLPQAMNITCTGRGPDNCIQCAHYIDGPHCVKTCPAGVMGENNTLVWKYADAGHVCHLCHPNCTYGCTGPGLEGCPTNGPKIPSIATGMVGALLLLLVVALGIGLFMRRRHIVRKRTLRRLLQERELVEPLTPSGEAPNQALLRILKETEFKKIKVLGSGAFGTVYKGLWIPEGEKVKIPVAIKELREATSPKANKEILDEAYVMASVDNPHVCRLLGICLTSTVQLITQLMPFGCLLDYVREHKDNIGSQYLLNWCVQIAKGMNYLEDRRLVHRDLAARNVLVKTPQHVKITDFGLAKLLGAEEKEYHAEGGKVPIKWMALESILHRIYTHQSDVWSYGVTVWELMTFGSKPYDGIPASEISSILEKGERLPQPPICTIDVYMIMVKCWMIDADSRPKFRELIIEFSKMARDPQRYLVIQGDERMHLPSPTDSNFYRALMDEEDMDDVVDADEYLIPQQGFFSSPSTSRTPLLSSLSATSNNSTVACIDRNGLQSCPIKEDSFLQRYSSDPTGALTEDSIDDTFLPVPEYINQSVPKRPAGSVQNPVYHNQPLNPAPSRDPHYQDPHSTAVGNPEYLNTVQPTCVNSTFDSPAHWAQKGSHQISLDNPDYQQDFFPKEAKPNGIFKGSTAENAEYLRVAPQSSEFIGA

C=C[C@]1(C)CC[C@@](C)(C(C)C)c2cc3c4c(c[nH]c4c21)C[C@@H](CO)NC(=O)[C@H](C(C)C)N3C
Activity [1]: inactive

C=CC(C)(C)c1ccc2c3c(c[nH]c13)C[C@@H](CO)NC(=O)[C@H](C(C)C)N2C [PENDOLMYCIN]
MIC (Bacillus cereus): 50 mg/L (≈ 135 µM) | MIC (Corynebacterium bovis): 50 mg/L (≈ 135 µM) | MIC [2]: 50 mg/L (≈ 135 µM) | MIC (Klebsiella pneumoniae): 100 mg/L (≈ 271 µM) | Activity [1]: inactive | IC50 (A-431): 0.001 mg/L (≈ 0.00271 µM) | Activity (Zone of skin): Toxic | MIC (Staphylococcus aureus): 25 mg/L (≈ 67.7 µM) | MIC (Micrococcus luteus): 25 mg/L (≈ 67.7 µM) | MIC (Bacillus anthracis): 50 mg/L (≈ 135 µM) | MIC (Bacillus subtilis): 50 mg/L (≈ 135 µM)
